The source of these data is US20250034138A1, “Compounds and Compositions as C-Kit Kinase Inhibitors” (Enanta Pharmaceuticals, Inc., priority 2023, published 2025).

The target of assay [1] is T1, Recombinant human c-KIT kinase (Homo sapiens, UniProt P10721).
T1 construct: purchased Promega V4498
The experiment in a line: c-KIT Kinase Chemiluminescence Assay (ADP-Glo). The class given is biochemical. As to conditions: recombinant human c-KIT 30-40 nM, ATP 50 μM, polyEY substrate, ADP-Glo luminescence. An excerpt: Staurosporine (AM-2282) and Imatinib (STI571) were purchased from Selleck Chemicals LLC (Houston, TX). The c-KIT reference compound THB001 (EP-053504) was synthesized by Enanta Pharmaceuticals, Inc. (Watertown, MA). The c-KIT Kinase Enzyme System (V4498) and ADP-Glo™ Kinase Assay kit (V6930) were purchased from Promega (Madison, WI). DMSO (D2650) was purchased from Sigma-Aldrich (Burlington, MA). ECHO-650 acoustic liquid handling system (67492212) and 384-well LDV ECHO source plates (LP-0200) were purchased from Labcyte, Inc (San Jose, CA). Envision Multimode Plate Reader (2104/464466) and ProxiPlate-384 Plus White 384-shallow well microplates (6008280) were purchased from PerkinElmer (Waltham, MA).
1. c-KIT Kinase Chemiluminescence Assay:
IC50 determination. Test compounds were dispersed into a 384-well low volume while ProxiPlate microplate from a DMSO solution using an ECHO 650 acoustic dispenser to generate a 11-point, 3.162-fold dilution, concentration curve starting at 10 μM in duplicate. Kinase Reaction: The kinase assay was based on the recommended protocol by c-KIT Kinase Enzyme System from Promega. Recombinant human c-KIT kinase in 3 μL of assay buffer (40 mM Tris pH 7.5, 20 mM MgCl2, 0.1 mg/mL BSA and 50 μM DTT) was added to the test or high control wells and 3 μL of assay buffer was added to the low control wells. The microplate was centrifuged at 800 rotations per minute (rpm) for 60 s and incubated at room temperature (RT) for 30 min. Next, 2 μL of buffered ATP and polyEY substrate solution was added to all wells. The microplate was centrifuged at 800 rpm for 60 s and incubated at RT for 2 h. The final assay contained c-KIT (30-40 nM), ATP (50 μM), polyEY substrate (0.2 μg/μL), test compounds (0-10 μM) and DMSO (1.7%) in 5 μL assay buffer. ADP detection with ADP-Glo™ Kinase Assay: After the kinase reaction incubation, 5 μL of ADP-Glo™ reagent was added to all wells. The microplate was centrifuged at 800 rpm for 60 s and incubated at RT for 40 min. Ten microliter (10 μL) of Kinase Detection Reagent (Luciferin-Luciferase system) was then added to all wells. The microplate was centrifuged at 800 rpm for 60 s and incubated at RT for 60 min. Kinase activity was measured as increase in luminescence at RT in an Envision plate reader equipped with 560 nm filters and operating in endpoint mode.
Data Analysis: Endpoint chemiluminescence from high and low control wells were used to calculate normalized c-KIT activity at various concentrations of test compounds. The normalized activities were fitted to inhibitor-versus-normalized response fit in GraphPad Prism 7 to determine half-maximal inhibitory concentration (IC50) and hill coefficient values (H).
c-KIT activity (%)=100/(1+I^H/IC50^H). Where I is the inhibitor concentration and H is the Hill coefficient. IC50 ranges are reported as follows: A<100 nM; B 0.1-1 μM; C>1 μM.
For orientation: ADP-Glo turns the ADP formed in a reaction into a luminescent signal.

In assay [2] the test system is M-07e cells which endogenously express human c-KIT. Put plainly: M-07e Cellular Assay (SCF-mediated cell proliferation, CellTiter Glo). The class given is cell-based. The note with it: SCF (EC90)-stimulated M-07e cell proliferation, 72 hours, CellTiter Glo, read-out: M-07e EC50. The procedure: 2. M-07e Cellular Assay M-07e cells (Creative Bioarray, CSC-CO249) which endogenously express human c-KIT were used to evaluate the effect of compounds on stem cell factor (SCF)-mediated cell proliferation. M-07e cells were cultured in growth media (RPMI+10% FBS+1% penicillin/streptomycin+10 ng/mL GM-CSF) at 5E5-1.5E6 cells/mL, replenishing media every 3-4 days. 1.5E4 cells were seeded per well in 384 well tissue culture treated plates in 20 μL assay media (RPMI+10% FBS+1% penicillin/streptomycin) without growth factor stimulation and incubated at 37° C. in a CO2 humidity-controlled incubator. Twenty-four hours later, three-fold serially diluted test compounds in media containing SCF (at the previously determined EC90) were added to the plated M-07e cells and incubated for an additional 72 hours. Cell viability was determined by adding 25 μL CellTiter Glo (Promega) to the cells and the luminescence was measured using a Perkin Elmer Envision plate reader. The EC50 was determined using GraphPad Prism. […] EC50 ranges are reported as follows: […]
In general terms: ATP-based viability assays read luminescence as a measure of living cells.

T1 sequence (P10721 26-976): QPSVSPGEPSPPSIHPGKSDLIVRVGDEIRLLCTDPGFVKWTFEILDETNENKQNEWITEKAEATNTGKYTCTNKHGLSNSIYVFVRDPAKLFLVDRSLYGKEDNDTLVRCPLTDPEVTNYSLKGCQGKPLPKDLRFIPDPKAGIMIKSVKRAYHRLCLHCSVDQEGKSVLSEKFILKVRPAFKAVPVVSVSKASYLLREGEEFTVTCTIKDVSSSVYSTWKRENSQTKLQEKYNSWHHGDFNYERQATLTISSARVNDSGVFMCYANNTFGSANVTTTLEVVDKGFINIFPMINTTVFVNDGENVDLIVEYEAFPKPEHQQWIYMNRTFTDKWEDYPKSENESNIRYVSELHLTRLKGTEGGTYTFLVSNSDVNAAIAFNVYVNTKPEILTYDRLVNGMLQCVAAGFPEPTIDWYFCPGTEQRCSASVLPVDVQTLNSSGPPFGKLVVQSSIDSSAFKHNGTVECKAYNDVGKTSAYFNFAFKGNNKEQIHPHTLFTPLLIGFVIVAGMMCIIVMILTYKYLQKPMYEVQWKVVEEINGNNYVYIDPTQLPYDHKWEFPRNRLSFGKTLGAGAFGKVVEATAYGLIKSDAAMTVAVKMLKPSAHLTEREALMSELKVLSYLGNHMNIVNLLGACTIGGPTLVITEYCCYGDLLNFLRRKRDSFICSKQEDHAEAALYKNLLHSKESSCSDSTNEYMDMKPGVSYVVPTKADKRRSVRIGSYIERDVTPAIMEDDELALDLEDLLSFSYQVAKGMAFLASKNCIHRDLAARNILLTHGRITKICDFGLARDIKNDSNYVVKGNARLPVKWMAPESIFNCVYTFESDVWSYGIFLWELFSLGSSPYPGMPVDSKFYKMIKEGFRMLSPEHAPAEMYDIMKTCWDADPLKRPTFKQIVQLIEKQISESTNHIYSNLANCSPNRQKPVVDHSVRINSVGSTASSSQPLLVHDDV

For `Cc1ccc(-c2nc(C3CC3)n(C)n2)cc1NC(=O)c1cnc2ccccn12` [Example 6], the IC50 in assay [1] lay within 100 to 1000 nM. In assay [2], the EC50 was 100 to 1000 nM.
`Cc1ccc(-c2nc3n(n2)CCCC3)cc1NC(=O)c1cnc2ccccn12` [Example 6-12]: the IC50 in assay [1] was 100 to 1000 nM. Further, the concentration giving a half-maximal response (EC50) in assay [2] fell in the range of 100 to 1000 nM.
Consider `Cc1ccc(-c2nnn(C3CC3)n2)cc1NC(=O)c1cnc2ccccn12` [Example 2], for which the IC50 in assay [1] lay in the range of 100 to 1000 nM. Also, the concentration for a half-maximal effect (EC50) in assay [2] is below 100 nM.
In the case of `Cc1ccc(-n2nnc(C3CC(F)(F)C3)n2)cc1NC(=O)c1cnc2ccccn12` [Example 8], in assay [1], the IC50 was below 100 nM. Also, in assay [2], the EC50 is below 100 nM.
`Cc1ccc(-c2nc3ccc(F)cc3o2)cc1NC(=O)c1cnc2ccccn12` [Example 11-5]: in assay [1], the 50% inhibitory concentration (IC50) is 100 to 1000 nM. The EC50 in assay [2] fell in the range of 100 to 1000 nM.
Turning to `Cc1ccc(-c2nc3ccc(F)cn3n2)cc1NC(=O)c1cnc2ccccn12` [Example 6-2], the IC50 in assay [1] is below 100 nM. Also, the concentration giving a half-maximal response (EC50) in assay [2] is below 100 nM.
In the case of `Cc1ccc(-c2nc3cc(Cl)ccn3n2)cc1NC(=O)c1cnc2ccccn12` [Example 6-15], the concentration for half-maximal inhibition (IC50) in assay [1] was below 100 nM. For the same compound, the EC50 in assay [2] lay within 100 to 1000 nM.

By IC50 is commonly meant the concentration that gives 50% inhibition. As usually defined, the EC50 is the concentration that produces a half-maximal response.
